Like-named read-outs stand apart in the source and are kept apart here.
Key:
[1] = Quantitative splicing assay (HTT), qPCR; assay type: cell-based, human; conditions: Homo sapiens; GM04724 lymphoblasts, 24 h, qPCR; read-out: HTT Splicing: E49-50 EC50
Procedure, shortened: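 TaqMan qPCR on cell-lysate cDNA quantifies cryptic-exon inclusion from HTT intron 49. Lymphoblasts plated at 50,000 cells/well had received compound for 24 h, 0.15 nM-2.5 uM range, 0.1% DMSO.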

[2] = test system: mHTT protein in GM04724 (CAG 70/20) Huntington's disease patient lymphoblast cells; test: mHTT protein assay, 2B7-MW1 assay via Mesoscale Discovery (MSD); assay type: cell-based, human
Procedure, shortened: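 Signal from the 2B7-MW1 antibody pair on MSD, rising with polyQ length and smaller HTT fragments, measured mHTT after 48 h compound exposure (0.6 nM–10 μM) in GM04724 cells. A parallel replicate plate gave CellTiter Glo viability.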

[3] = test system: SMN protein in spinal muscular atrophy (SMA) patient fibroblasts (GM03813, Coriell); test: SMN protein assay, Mesoscale Discovery (MSD); assay type: cell-based, human; conditions: for EC50: read-out: SMN2 protein EC50
Procedure, shortened: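 Absolute SMN levels were quantified by MSD against an SMN protein standard curve (1 μg/ml to 19.5 pg/ml) run on each plate. Samples were lysates of GM03813 patient fibroblasts (7000 cells/well) treated 48 hours with compound doses from 2.5 μM down to 0.6 nM.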

[4] = test system: MDR1-MDCK cell monolayers; conditions: dog, MDCK-MDR1, 120 min, 5 μM, pH 7.4
Method: (§1) Example A13: Assessment of Blood-Brain-Barrier (BBB) Penetration Potential Via an MDCK-MDR1 Permeability Assay
(§2) The permeability of compounds is assessed for BBB penetration potential by use of an MDCK-MDR1 assay (Catalog EA203) performed by Absorption Systems, Exton PA.
(§3) Experimental Procedure: MDR1-MDCK cell monolayers are grown to confluence on collagen-coated, microporous membranes in 12-well assay plates. The permeability assay buffer is Hanks' balanced salt solution containing 10 mM HEPES and 15 mM glucose at a pH of 7.4. The buffer in the receiver chamber also contained 1% bovine serum albumin. The dosing solution concentration is 5 μM of test article in the assay buffer. Cell monolayers are dosed on the apical side (A-to-B) or basolateral side (B-to-A) and incubated at 37° C. with 5% CO2 in a humidified incubator. Samples are taken from the donor and receiver chambers at 120 minutes. Each determination is performed in duplicate. The flux of lucifer yellow is also measured post-experimentally for each monolayer to ensure no damage is inflicted to the cell monolayers during the flux period. All samples are assayed by LC-MS/MS using electrospray ionization.
(§4) The apparent permeability (Papp) and percent recovery are calculated as follows:
(§5) Analytical Method: Liquid Chromatography. Column: Waters ACQUITY UPLC BEH Phenyl 30 ×2.1 mm, 1.7 μm; M.P. Buffer. 25 mM ammonium formate buffer, pH 3.5; Aqueous Reservoir (A): 90% water, 10% buffer, Organic Reservoir (B): 90% acetonitrile, 10% buffer, Flow Rate: 0.7 mL/minute; Gradient Program:
(§6) • Total Run Time: 1.00 minute • Autosampler. 2 μL injection volume • Wash1: water/methanol/2-propanol:1/1/1; with 0.2% formic acid • Wash2: 0.1% formic acid in water • Brain Penetration • Potential Classification: A-B Papp≥3.0 and Efflux Ratio <3.0: High • A-B Papp≥3.0 and 10≥Efflux Ratio >3.0: Moderate • A-B Papp≥3.0 and Efflux Ratio≥10: Low • A-B Papp<3.0: Low

MDR1 (P-gp) = test: in vitro; conditions: dog, MDCK-MDR1, pH 7.4
Method: as §1, §2, §3, §4, §5, §6

MDR1 = test: in vitro; conditions: dog, MDCK-MDR1, pH 7.4
Method: as §1, §2, §3, §4, §5, §6

[5] = test system: SMN FL and SMN Δ7 in spinal muscular atrophy (SMA) patient fibroblasts (GM03813, Coriell); test: Quantitative splicing assay (SMN), qPCR; assay type: cell-based, human; conditions: Homo sapiens, Fibroblast; SMA patient fibroblasts GM03813, 24 h, qPCR; read-out: SMN2 Splicing FL EC50
Method: Spinal muscular atrophy (SMA) patient fibroblasts (GM03813, Coriell) are plated in 96-well plates at 50,000 cells/well. […] Treated cells are lysed and cDNA synthesized using the Fast Advanced Cells-to-Ct kit (Thermofisher A35378) according to the manufacturer's instructions. 2 μL of each cDNA are used in qPCR reactions. […] Reactions are run in a Quant Studio 6 qPCR instrument with default settings.

[6] = GM04724 Huntington's disease patient lymphoblasts
[7] = SMA patient fibroblasts GM03813, 48 hours, MSD
[8] = GM04724 (CAG 70/20) Huntington's disease patient lymphoblasts
[9] = SMA patient fibroblasts (GM03813), 48 hours

Row | Structure (SMILES) | EC50 [1] [nM] | EC50 [2, 6] [nM] | EC50 [3, 7] [nM] | MDCK-MDR1: % Recov A-B [4] [%] | MDCK-MDR1: % Recov B-A [4] [%] | Papp A→B at 120 min, 5 μM (MDR1 (P-gp)) [×10⁻⁶ cm/s] | Papp B→A at 120 min, 5 μM (MDR1 (P-gp)) [×10⁻⁶ cm/s] | efflux ratio at 120 min, 5 μM (MDR1) | SMN2 protein EC50 [3, 7] | EC50 [5] [nM] | mHTT protein EC50 [2, 6] | mHTT protein EC50 [2, 8] | SMN2 protein EC50 [3, 9] | EC50 [3, 9] [nM]
1 | Cn1cnc2cc(-c3ccc(N(C4CC4)[C@@H]4C[C@H]5CC[C@H](N5)[C@@H]4F)nn3)c(O)cc2c1=O [Compound 56A, 7-(6-(cyclopropyl((1S,2S,3R,5R)-2-fluoro-8-azabicyclo[3.2.1]octan-3-yl)amino)pyridazin-3-yl)-6-hydroxy-3-methylquinazolin-4(3H)-one] | 10 to 501 | 101 to 500 | 101 to 500 | 83 | 83 | 0.92 | 51.4 | 56 |  |  |  |  |  | 
2 | CN(c1ccc(-c2cc(C#N)ccc2O)nn1)[C@H]1C[C@@H]2CC[C@@H](N2)[C@H]1F (single isomer, unassigned) [Compound 70B] | 10 to 501 | 101 to 500 |  | 95 | 100 | 3.84 | 58.1 | 15 | E (501 ≤ E ≤ 10.000) |  |  |  |  | 
3 | CNC(=O)c1cc(O)c(-c2ccc(N(C)[C@@H]3C[C@H]4CC[C@H](N4)[C@@H]3F)nn2)cc1F [Compound 47A, 2-fluoro-4-(6-(((1S,2S,3R,5R)-2-fluoro-8-azabicyclo[3.2.1]octan-3-yl)(methyl)amino)pyridazin-3-yl)-5-hydroxy-N-methylbenzamide] |  | 101 to 500 | 101 to 500 | 98 | 108 | 1.45 | 49.3 | 34 |  | 501 to 10000 |  |  |  | 
4 | O=c1c2cc(O)c(-c3ccc(N(C4CC4)[C@@H]4C[C@H]5CC[C@H](N5)[C@@H]4F)nn3)cc2ncn1CC(F)(F)F (single isomer, unassigned) [Compound 60A] |  |  |  | 94 | 100 | 0.44 | 65.9 | 151 | E (501 ≤ E ≤ 10.000) |  | E (501 ≤ E ≤ 10.000) |  |  | 
5 | CN(c1ccc(-c2cc(C#N)c(F)cc2O)nn1)[C@@H]1C[C@H]2CC[C@H](N2)[C@@H]1F [Compound 72A, 2-fluoro-5-(6-(((1S,2S,3R,5R)-2-fluoro-8-azabicyclo[3.2.1]octan-3-yl)(methyl)amino)pyridazin-3-yl)-4-hydroxybenzonitrile] |  |  |  | 88 | 77 | 11.6 | 39.9 | 3 | E (501 ≤ E ≤ 10.000) |  | E (501 ≤ E ≤ 10.000) |  |  | 
6 | CNC(=O)c1cc(O)c(-c2ccc(N(C)[C@@H]3C[C@H]4CC[C@@H]([C@@H]3F)N4C)nn2)cc1F (single isomer, unassigned) [Compound 96A] |  |  |  | 100 | 114 | 2.97 | 53.7 | 18 | E (501 ≤ E ≤ 10.000) |  | E (501 ≤ E ≤ 10.000) |  |  | 
7 | CCc1cn(-c2ccc(-c3ccc(N(C)[C@@H]4C[C@H]5CC(F)(F)[C@@H](C4)N5)nn3)c(O)c2)nn1 (single isomer, unassigned) [Compound 64A] |  |  |  | 64 | 78 | 7.18 | 52.2 | 7 | E (501 ≤ E ≤ 10.000) |  | E (501 ≤ E ≤ 10.000) |  |  | 
8 | CN(c1ccc(-c2ccc(C(F)F)cc2O)nn1)[C@H]1C[C@@H]2CC[C@@H](N2)[C@H]1F (single isomer, unassigned) [Compound 120B] |  |  |  | 60 | 76 | 5.84 | 27.3 | 5 |  |  |  | E (501 ≤ E ≤ 10.000) | E (501 ≤ E ≤ 10.000) | 
9 | CN(C)C(=O)c1cc2cc(O)c(-c3ccc(N(C)[C@H]4C[C@@H]5CC[C@H]([C@H]4F)N5C)nn3)cc2o1 (single isomer, unassigned) [Compound 106B] |  |  |  | 92 | 99 | 1.61 | 55.7 | 35 |  |  |  | E (501 ≤ E ≤ 10.000) |  | 101 to 500
10 | CN(c1ccc(-c2ccc(-n3ccnc3)cc2O)nn1)[C@H]1C[C@@H]2CC(F)(F)[C@H](C1)N2 [Compound 13B, 2-(6-(((1R,3S,5S)-6,6-difluoro-8-azabicyclo[3.2.1]octan-3-yl)(methyl)amino)pyridazin-3-yl)-5-(1H-imidazol-1-yl)phenol] |  | 101 to 500 |  | 90 | 97 | 9.96 | 55.7 | 6 | E (501 ≤ E ≤ 10.000) |  |  |  |  | 
11 | CN(C)C(=O)c1cc(O)c(-c2ccc(N(C)[C@H]3C[C@@H]4CC[C@H]([C@H]3F)N4C)nn2)cc1F (single isomer, unassigned) [Compound 104B] |  |  |  | 99 | 105 | 0.89 | 50.2 | 56 |  |  |  | E (501 ≤ E ≤ 10.000) | E (501 ≤ E ≤ 10.000) | 
12 | CN(c1ccc(-c2cc3ncn(CC(F)(F)F)c(=O)c3cc2O)nn1)[C@H]1C[C@@H]2CC(F)(F)[C@H](C1)N2 [Compound 59B, 7-(6-(((1R,3S,5S)-6,6-difluoro-8-azabicyclo[3.2.1]octan-3-yl)(methyl)amino)pyridazin-3-yl)-6-hydroxy-3-(2,2,2-trifluoroethyl)quinazolin-4(3H)-one] |  |  |  | 107 | 101 | 2.97 | 84.2 | 28 | E (501 ≤ E ≤ 10.000) |  | E (501 ≤ E ≤ 10.000) |  |  | 
13 | CC(=O)Nc1ccc(-c2ccc(N(C)[C@H]3C[C@@H]4CC[C@@H](N4)[C@H]3F)nn2)c(O)c1 (single isomer, unassigned) [Compound 32B] |  |  |  | 95 | 95 | 0.27 | 21.2 | 78 | E (501 ≤ E ≤ 10.000) |  | E (501 ≤ E ≤ 10.000) |  |  | 
14 | CCc1cn(-c2ccc(-c3ccc(N(C)[C@H]4C[C@@H]5CC(F)(F)[C@H](C4)N5)nn3)c(O)c2)cn1 [Compound 18B, 2-(6-(((1R,3S,5S)-6,6-difluoro-8-azabicyclo[3.2.1]octan-3-yl)(methyl)amino)pyridazin-3-yl)-5-(4-ethyl-1H-imidazol-1-yl)phenol] |  | 101 to 500 |  | 55 | 69 | 8.37 | 35.6 | 4 | E (501 ≤ E ≤ 10.000) |  |  |  |  | 
15 | CN(c1ccc(-c2cc3ccn(C)c(=O)c3cc2O)nn1)[C@@H]1C[C@H]2CC[C@@H]([C@@H]1F)N2C (single isomer, unassigned) [Compound 97A] |  |  | 101 to 500 | 73 | 74 | 1.96 | 40.3 | 20 |  |  | E (501 ≤ E ≤ 10.000) |  |  | 
16 | CN(c1ccc(-c2ccc(Oc3nccn3C)cc2O)nn1)[C@H]1C[C@@H]2CC[C@@H](N2)[C@H]1F (single isomer, unassigned) [Compound 123B] |  |  |  | 92 | 102 | 0.66 | 58.7 | 89 |  |  |  | E (501 ≤ E ≤ 10.000) |  | 101 to 500
17 | CN(c1ccc(-c2cc3occc(=O)c3cc2O)nn1)[C@H]1C[C@@H]2CC[C@H]([C@H]1F)N2C (single isomer, unassigned) [Compound 94B] |  |  | 101 to 500 | 73 | 83 | 4.47 | 41.2 | 9 |  |  | E (501 ≤ E ≤ 10.000) |  |  | 
